Values joined by “and” are separate entries in the source; they are usually repeats but may differ in a detail not shown here. Equal entries are not always repeated.

The target in the experiment is SARS-CoV-2 Main Protease (SARS-CoV-2) (UniProt P0DTD1).
As to `Cc1csc2ncc(C(=O)Nc3cccc4ncccc34)c(=O)n12`, the IC50 (in general, the point on the concentration scale where inhibition reaches its midpoint) was > 99.5 µM.

For `CN(Cc1ccccc1Nc1cc(Cl)cc(CC(=O)Nc2cncc3ccccc23)c1)C1CCCCC1`, the IC50 amounted to 2.22 µM.

The molecule `O=C(Cc1cc(Cl)cc(NCCc2ccc(Cl)c(Cl)c2)c1)Nc1cncc2ccccc12` came in with an IC50 of 5.41 µM.

With `O=C(Cc1cc(Cl)cc(Nc2ccc(Cl)c(Cl)c2)c1)Nc1cncc2ccccc12`, the IC50 was 2.28 µM.

`CC(C)(C#N)CS(=O)(=O)N1Cc2ccc(Cl)cc2C2(CCN(c3cncc4ccccc34)C2=O)C1` (configuration not stated) came in with a concentration for half-maximal inhibition (IC50) of 0.448 µM.

Consider `CCOC(=O)c1c(COc2cc(Cl)cc(CC(=O)Nc3cnccc3C)c2)oc2ccccc12`, for which the half-maximal inhibitory concentration (IC50) was > 99.5 µM.

Take `O=C(NCCc1cccc(F)c1)C(c1cccnc1)N(C(=O)c1cnc[nH]1)c1ccc(C2COC2)cc1` (configuration not stated): the IC50 was determined as 22.7 µM.

Take `Cc1nc(N2CCN(S(=O)(=O)c3ccccc3)CC2)sc1S(N)(=O)=O`: the IC50 was > 99.5 µM.

On to `C=CC(=O)N(Cc1ccccc1Cl)C(C(=O)NC(C)(C)C)c1cncc2ccccc12` (configuration not stated), for which the half-inhibitory concentration (IC50) is > 99.5 µM.

In the case of `O=C(Cc1cccc(Cl)c1)Nc1[nH]nc2cccnc12`, the half-maximal inhibitory concentration (IC50) was > 99.5 µM.

Take `Cc1nc2sccn2c1CN(C)C(=O)c1cnc2sccn2c1=O`: the 50% inhibitory concentration (IC50) was > 99.5 µM.

On to `Cc1cc(C(=O)CCl)c(C)n1NC(=O)c1n[nH]c(=O)c2ccccc12`, for which the half-inhibitory concentration (IC50) is 6.05 µM.

The molecule `COc1ccc(CNCC2(C(=O)Nc3cncc4ccccc34)CCOc3ccc(Cl)cc32)cc1OCC(N)=O` (configuration not stated) displayed an IC50 of 11.5 µM.

In the case of `CS(=O)(=O)NCC1(C(=O)Nc2cncc3ccccc23)CCOc2ccc(Cl)cc21` (configuration not stated), the IC50 is 3.87 µM.

Molecule `COc1ccc(N(C(=O)c2ccco2)C(C(=O)NCCc2cccc(F)c2)c2cccnc2)cc1NC(=O)C1CCCCC1` (configuration not stated) returned a 50% inhibitory concentration (IC50) of 62.7 µM.

For `CC(C)(C)OC(=O)N1CC(NC(=O)C(c2cccnc2)N(C(=O)c2cocn2)c2ccc(C(C)(C)C)cc2)C1` (configuration not stated), the IC50 came to 6.91 µM.

Consider `CC(C)(C)c1ccc(N(C(=O)c2cc(=O)n3ncnc3[nH]2)C(C(=O)NCCc2cccc(F)c2)c2cccnc2)cc1` (configuration not stated), for which the IC50 is > 99.5 µM.

Take `O=C(Nc1cncc2ccccc12)[C@@H]1CN(S(=O)(=O)CC2CS(=O)(=O)C2)Cc2ccc(Cl)cc21` (stereo in doubt): the half-inhibitory concentration (IC50) came out at 8.23 µM.

`CNC(=O)Nc1ccc(N(Cc2ccsc2)C(=O)Cn2nnc3ccccc32)cc1` registered a half-maximal inhibitory concentration (IC50) of 1.42 µM.

As for `O=C(NCCc1cccc(F)c1)C(c1cccnc1)N(C(=O)c1cnc[nH]1)C1CCC2OCCC2C1` (configuration not stated), the IC50 is > 99 µM.

In the case of `COc1ccccc1OC1CCN(C(=O)c2cc(=O)[nH]c3ccccc23)C1` (configuration not stated), the IC50 is > 99.5 µM.

With `O=C(Nc1cncc2ccccc12)C1CCOc2c(O)ccc(Cl)c21` (configuration not stated), the IC50 is > 99.5 µM.

As for `N#Cc1ccc(N(C(=O)c2cocn2)C(C(=O)NCCc2cccc(F)c2)c2cccnc2)cc1` (configuration not stated), the IC50 was > 99.5 µM.

For `CNC(=O)CN1CC2(CCN(c3cncc4ccccc34)C2=O)c2cc(Cl)ccc2S1(=O)=O` (configuration not stated), the half-inhibitory concentration (IC50) is 0.275 µM.

As for `Cc1nnn(-c2ccc(N(C(=O)c3cocn3)C(C(=O)NCCc3cccc(F)c3)c3cccnc3)cc2)n1` (configuration not stated), the IC50 turned out to be 33.2 µM.

Consider `Cc1cc(O)c(C(C(=O)NCCc2cccc(F)c2)N(C(=O)c2cocn2)c2ccc(C(C)(C)C)cc2)c(=O)[nH]1` (configuration not stated), for which the 50% inhibitory concentration (IC50) was > 99.5 µM.

Take `O=C(NCCc1cccc(F)c1)C(c1cccnc1)N(Cc1c(O)ccc2c1CCCC2)C(=O)c1ccco1` (configuration not stated): the IC50 was 12.1 µM.

With `O=C(NCCc1ccccc1)[C@@H](c1ccccc1)N1Cc2ccccc2C1=O` (stereo in doubt), the IC50 was > 99.5 µM.

As for `O=C(CN1Cc2ccc(Cl)cc2C(C(=O)Nc2cncc3ccccc23)C1)NC1CC1` (configuration not stated), the half-inhibitory concentration (IC50) is 0.076 µM and 0.099 µM and 0.186 µM.

As for `Cc1cc(C)c(S(=O)(=O)N2CCCC2C(=O)Nc2ccc3[nH]c(=O)sc3c2)c(C)c1` (configuration not stated), the IC50 is > 99.5 µM.

For `O=C(Cc1cc(Cl)cc(NCCc2ccccc2C(F)(F)F)c1)Nc1cncc2ccccc12`, the 50% inhibitory concentration (IC50) is 2.97 µM.

For the molecule `O=C(Cc1cc(Cl)cc(Nc2ccc(I)cn2)c1)Nc1cncc2ccccc12`, the IC50 is 2.21 µM.

Consider `Cn1cccc(C(C(=O)NCCc2cccc(F)c2)N(C(=O)c2cocn2)c2ccc(C(C)(C)C)cc2)c1=O` (configuration not stated), for which the half-maximal inhibitory concentration (IC50) was > 99.5 µM.

On to `Cc1cc(N)ncc1NC(=O)C1CCOc2ccc(Cl)cc21` (configuration not stated), for which the 50% inhibitory concentration (IC50) was > 99.5 µM.

Molecule `CS(=O)(=O)Cc1ccc(N(C(=O)c2cnc[nH]2)C(C(=O)NCCc2cccc(F)c2)c2cccnc2)cc1` (configuration not stated) yielded a 50% inhibitory concentration (IC50) of 41.1 µM.

The molecule `COC(CNC(=O)C(c1cccnc1)N(C(=O)c1cocn1)c1ccc(C(C)(C)C)cc1)OC` (configuration not stated) returned an IC50 of 7.91 µM.

In turn, `CC(C)(C)c1ccc(N(C(=O)c2cocn2)C(C(=O)NC2CCOCC2)c2cccnc2)cc1` (configuration not stated) came in with an IC50 of 3.9 µM.

Molecule `O=C(Cc1cc(Cl)cc(NCc2cccc(F)c2Cl)c1)Nc1cncc2ccccc12` had a 50% inhibitory concentration (IC50) of 2.22 µM.

The molecule `CN1CCN(C2CCN(c3cc(Cl)cc(CC(=O)Nc4cncc5ccccc45)c3)CC2)CC1` showed an IC50 of 4.56 µM.

With `Cc1cc(C(F)(F)F)nc2n[nH]c(NC(=O)Cc3cccc(Cl)c3)c12`, the IC50 was > 99.5 µM.

In the case of `Cc1ccncc1NC(=O)C1(c2cccc(Cl)c2)CC1`, the concentration for half-maximal inhibition (IC50) was > 99.5 µM.

With `O=C(Cc1cc(Cl)cc(Nc2cccc(Br)c2)c1)Nc1cncc2ccccc12`, the IC50 was found to be 2.07 µM.

Molecule `CC(NC(=O)CCl)c1cc(F)cc(Cl)c1` (configuration not stated) showed a half-maximal inhibitory concentration (IC50) of 27.9 µM.

With `CC(C)(C)c1ccc(N(C(=O)c2cn[nH]c2)C(C(=O)NCCc2cccc(F)c2)c2cccnc2)cc1` (configuration not stated), the IC50 was 5.83 µM.

As to `N#CCNC(=O)CN1Cc2ccc(Cl)cc2C2(CCN(c3cncc4ccccc34)C2=O)C1` (configuration not stated), the IC50 is 0.263 µM.

For the molecule `Cc1cn2nnc(C(=O)N(c3ccc(C(C)(C)C)cc3)C(C(=O)NCCc3cccc(F)c3)c3cccnc3)c2c(=O)[nH]1` (configuration not stated), the IC50 is > 99.5 µM.

Take `Cc1ccncc1NC(=O)Cc1cc(Cl)cc(NC2CC2C(F)(F)F)c1` (configuration not stated): the concentration for half-maximal inhibition (IC50) worked out at 25.3 µM.

With `O=C(CCl)N1CCN(C2(c3cccc(Cl)c3)CC2)CC1`, the IC50 was 64.9 µM and 42.1 µM.

Consider `CN(CCC#N)S(=O)(=O)N1Cc2ccc(Cl)cc2C2(CCN(c3cncc4ccccc34)C2=O)C1` (configuration not stated), for which the half-maximal inhibitory concentration (IC50) was found to be 0.613 µM.

In turn, `N#CCS(=O)(=O)N1Cc2ccc(Cl)cc2C(C(=O)Nc2cncc3ccccc23)C1` (configuration not stated) registered an IC50 of 0.33 µM.

With `N#CC1CN(S(=O)(=O)NCc2ccc(Cl)cc2CC(=O)Nc2cncc3ccccc23)C1`, the concentration for half-maximal inhibition (IC50) was 0.231 µM.

As for `O=C1CCN(S(=O)(=O)c2cccc(F)c2)CC1`, the IC50 was > 99.5 µM.

The molecule `C=CC(=O)N(c1ccc(C(C)(C)C)cc1)C(C(=O)NCCc1cccc(F)c1)c1cccnc1` (configuration not stated) displayed a 50% inhibitory concentration (IC50) of 2.96 µM.

`N#CCCN1CCN(C(=O)CC2(C(=O)Nc3cncc4ccccc34)CCOc3ccc(Cl)cc32)CC1` (configuration not stated) showed a half-maximal inhibitory concentration (IC50) of 21.3 µM.

For `O=C(Cc1cc(Cl)cc(Nc2ccc([N+](=O)[O-])cc2Cl)c1)Nc1cncc2ccccc12`, the half-inhibitory concentration (IC50) was determined as 2.18 µM.

For the molecule `Cc1ccc(NC2=C(c3ccccc3)C(=O)N(Cc3cccnc3)C2=O)cc1Cl`, the IC50 is > 99.5 µM.

In turn, `CC1CCNC(=O)C1NC(=O)Cc1cccc(Cl)c1` (configuration not stated) had an IC50 of 43.7 µM.

The molecule `C=CC(=O)N(c1ccc(C(F)(F)F)cc1)C(C(=O)NCCc1cccc(F)c1)c1cncc(Cl)c1` (configuration not stated) came in with a half-inhibitory concentration (IC50) of 23.9 µM.

Take `O=C(Cc1cc(Cl)cc(Nc2nnc(Cl)cc2Br)c1)Nc1cncc2ccccc12`: the IC50 is 1.81 µM.

`O=C(Cc1cc(Cl)cc(Nc2cc(F)c(Br)c(F)c2)c1)Nc1cncc2ccccc12` displayed an IC50 of 2.05 µM.

Take `Cc1cc2c(N)nc(=O)n(CC(=O)Nc3cccc(Cl)c3)c2s1`: the IC50 was > 99.5 µM.

On to `O=c1c2ccccc2c(-c2ccc(Br)cc2)nn1CC(O)CN1CCOCC1` (configuration not stated), for which the half-inhibitory concentration (IC50) is > 99.5 µM.

Values taken from the COVID Moonshot data (paper PMC7615835).
